Source: US11312709B2, “Ghrelin O-acyltransferase inhibitors” (Glaxosmithkline Intellectual Property Development Limited, priority 2018, dated 2022)

How the values were obtained:
human GOAT = human GOAT (Homo sapiens (Human), UniProt Q96T53); assay: GOAT TR-FRET (HTRF) inhibition assay, 384-well; type: biochemical; conditions: His-tag human GOAT membrane preparation from sf9 cells; read-out: hGOAT IC50
Experimental: Compounds contained herein were evaluated for their ability to inhibit the activity of GOAT. GOAT activity was assessed using a time-resolved fluorescence energy transfer (TR-FRET) assay in a 384-well format. His-tag human GOAT enzyme was in the form of a cell membrane preparation from sf9 cells infected with hGOAT-V5-His baculovirus. Varying concentrations of test compound with final DMSO concentration kept to 0.5% were added to membrane solution. Human GOAT membrane activity was established in a buffer having final concentration 0.25 mg/mL in 50 mM MOPS, pH7.5; 50 mM KCl; 0.1 mg/mL BSA; 50 μM CHAPS; and 2 mM EDTA. Substrate solution consisting of biotinylated ghrelin peptide (final concentration 100 nM), octanoyl coA (final concentration 2 μM) and palmitoyl CoA (final concentration 50 μM) was added to initiate the reaction. Plates were sealed, centrifuged for 1 minute at 2000 rpm, then incubated at 30° C. for 80 minutes with gentle shaking on an Eppendorf mix plate. Reaction termination and detection mix consisting of chicken anti-active ghrelin antibody (final concentration of 10 nM), Europium W1024-labeled streptavidin (final concentration of 4 nM), GOAT anti-chicken Dylight (final concentration of 12.5 nM), and GS[DAP-oc]-FL-amide inhibitor (final concentration of 1 μM) was added before further incubation for 40 minutes at 30° C. The plate was then read on an Envision in HTRF mode with excitation filter UV (TRF) 340 and first emission filter of APC 665 and a second emission filter of Europium 615. HTRF readings were acquired as per instrument defined LANCE-DELFIA protocol with a delay and window times of 50 μs for both; number of sequential windows: 1; time between flashes: 2000 μs between each of 100 flashes and 10 flashes for the second detector. The HTRF ratio was calculated directly by the instrument as the ratio of 665 window/615 window. Percent inhibition was calculated as 100−(100×(U−NC)/(PC−NC)) where U was the unknown value HTRF ratio (test compound value), NC was the negative control (100% inhibition value generated from a potent inhibitor), and PC was the positive control (100% activity generated from 0.5% DMSO vehicle). IC50 values were generated in GraphPad Prism (Version 4.03) using non-linear regression curve fit and sigmoidal dose response variable slope analysis.

acyl ghrelin [1] = assay: Acyl ghrelin reduction in mice on a high fat, high carb diet; type: in vivo, male C57BL/6 mice; conditions: HFHC diet; for reduction in acyl ghrelin levels compared to Rimonabant followed by vehicle: statistically significant
Experimental: Normal mice were acclimated to individual housing for two weeks on normal chow diet (20% calories from protein, 35% from carbohydrate, and 45% from fat). All mice except a control group were then switched to a high fat, high carb (HFHC) diet to cause obesity. Mice on the HFHC diet were administered 3 mg/kg Rimonabant once daily for seven days to cause weight loss except for one group that initiated 10 mg/kg Example 1a immediately. Mice that had been treated with Rimonabant were then administered various treatments in the evening for 21 days: vehicle, 3 mg/kg Rimonabant, or 10 mg/kg Example 1a. Mice were fasted overnight and administered a final treatment in the morning. Three hours later, blood was collected for plasma acyl ghrelin and des-acyl ghrelin determination.

acyl ghrelin [2] = assay: Acyl ghrelin reduction in mice (fasting induced); type: in vivo; conditions: 5 doses; for acyl ghrelin reduction: 3 h after final dose, p<0.05
Experimental: (§1) Normal mice were administered various oral doses of Example 1a on a bid basis for two days (4 doses). Food was withdrawn the evening of the second day after the fourth dose, and then the animals were administered a final dose the morning of the third day. Three hours after this fifth and final dose, blood was collected for ghrelin and acyl ghrelin measurement by ELISA.

acyl ghrelin [3] = assay: Acyl ghrelin reduction in rats (fasting induced); type: in vivo, male SD rats; conditions: 10 mg/kg, same design as mice
Experimental: as §1
The same experimental design was conducted in rats administered 10 mg/kg of Example 1a.

acyl ghrelin [4] = assay: Single-dose PK/PD study, acyl ghrelin reduction in cynomolgus monkeys; type: in vivo; conditions: single oral dose 10 mg/kg, over the first 24 hours, fasted
Experimental: A single-dose PK/PD study was conducted in cynomolgus monkeys after a 10 mg/kg dose of Example 1a. On day zero, after an overnight fast, three monkeys were administered an oral dose of vehicle, and blood was collected pre-dose and 1, 3, 8, and 24 hours later. The 24 hour time point served as the pre-dose measurement for day 1 when, after an overnight fast, the monkeys were administered a single oral dose of 10 mg/kg Example 1a. Blood was collected at various time points (15 minutes, 30 minutes, 1 hour, 3 hours, 8 hours, 24 hours, 48 hours, 96 hours, and 168 hours) with overnight fasting throughout the study.

[5] = normal mice, various oral doses bid, blood 3 h after final dose, fasted, ELISA
[6] = continuous treatment with 10 mg/kg Example 1a

Chain of human GOAT (Q96T53 whole entry): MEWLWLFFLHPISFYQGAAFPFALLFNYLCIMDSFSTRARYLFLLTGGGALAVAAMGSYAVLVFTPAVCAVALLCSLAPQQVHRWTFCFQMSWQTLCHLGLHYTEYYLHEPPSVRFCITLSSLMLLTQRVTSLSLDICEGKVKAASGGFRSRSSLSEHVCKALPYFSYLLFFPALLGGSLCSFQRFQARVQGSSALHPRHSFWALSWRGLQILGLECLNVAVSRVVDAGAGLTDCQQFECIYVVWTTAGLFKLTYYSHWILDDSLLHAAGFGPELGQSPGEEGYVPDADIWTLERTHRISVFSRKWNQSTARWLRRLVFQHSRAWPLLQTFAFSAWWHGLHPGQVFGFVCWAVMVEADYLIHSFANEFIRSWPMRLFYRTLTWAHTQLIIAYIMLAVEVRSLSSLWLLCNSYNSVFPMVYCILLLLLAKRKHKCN

Row | Compound | IC50 (human GOAT) | also measured
1 | O=C(O)Cc1csc2c(Cl)c(O[C@@H]3COc4ncccc43)cc(Cl)c12 [Example 7b] | < 50 nM | 
2 | O=C(O)Cc1csc2cc(O[C@@H]3CCc4ncccc43)cc(Cl)c12 [Example 1b, (R)-2-(4-chloro-6-((6,7-dihydro-5H-cyclopenta[b]pyridin-5-yl)oxy)benzo[b]thiophen-3-yl)acetic acid] | < 5000 nM | 
3 | NC(=O)c1ccc2c(n1)CC[C@H]2Oc1cc(Cl)c2c(CC(=O)O)csc2c1 [Example 9b] | < 50 nM | 
4 | Cc1ccc2c(n1)CC[C@@H]2Oc1cc(Cl)c2c(CC(=O)O)csc2c1 [Example 2a, (S)-2-(4-chloro-6-((2-methyl-6,7-dihydro-5H-cyclopenta[b]pyridin-5-yl)oxy)benzo[b]thiophen-3-yl)acetic acid] | < 50 nM | 
5 | O=C(O)Cc1csc2c(Cl)c(O[C@@H]3CCc4nc(C(F)(F)F)ccc43)cc(Cl)c12 [Example 4b] | < 50 nM | 
6 | N#Cc1ccc2c(n1)CCC2Oc1cc(Cl)c2c(CC(=O)O)csc2c1 (racemic) [Example 8, 2-(4-chloro-6-((2-cyano-6,7-dihydro-5H-cyclopenta[b]pyridin-5-yl)oxy)benzo[b]thiophen-3-yl)acetic Acid] | < 50 nM | 
7 | O=C(O)Cc1csc2c(Cl)c(O[C@H]3CCc4nc(Cl)ccc43)cc(Cl)c12 [Example 3a] | < 500 nM | 
8 | NC(=O)c1ccc2c(n1)CC[C@@H]2Oc1cc(Cl)c2c(CC(=O)O)csc2c1 [Example 9a] | < 500 nM | 
9 | O=C(O)Cc1csc2c(Cl)c(O[C@H]3CCc4nc(C(F)(F)F)ccc43)cc(Cl)c12 [Example 4a] | < 500 nM | 
10 | Cc1ccc2c(n1)CC[C@H]2Oc1cc(Cl)c2c(CC(=O)O)csc2c1 [Example 2b, (R)-2-(4-chloro-6-((2-methyl-6,7-dihydro-5H-cyclopenta[b]pyridin-5-yl)oxy)benzo[b]thiophen-3-yl)acetic acid] | < 5000 nM | 
11 | O=C(O)Cc1csc2c(F)c(O[C@H]3COc4nc(C(F)(F)F)ccc43)cc(Cl)c12 [Example 5a] | < 5000 nM | 
12 | O=C(O)Cc1csc2cc(O[C@H]3COc4ncccc43)cc(Cl)c12 [Example 6a] | < 50 nM | 
13 | Cc1c(C(=O)NN2CCCCC2)nn(-c2ccc(Cl)cc2Cl)c1-c1ccc(Cl)cc1 [Rimonabant, reference compound] |  | acyl ghrelin levels (so in the source); context is des-acyl ghrelin, FIG. 8) (acyl ghrelin [1]; 3 mg/kg Rimonabant treatment alone, not as much as with Example 1a): increased
14 | O=C(O)Cc1csc2cc(O[C@H]3CCc4ncccc43)cc(Cl)c12 [Example 1a, (S)-2-(4-chloro-6-((6,7-dihydro-5H-cyclopenta[b]pyridin-5-yl)oxy)benzo[b]thiophen-3-yl)acetic Acid] | < 50 nM | acyl ghrelin reduction (acyl ghrelin [2]; 1 mg/kg oral bid): statistically significant; acyl ghrelin reduction (acyl ghrelin [2]; 10 mg/kg oral bid): statistically significant; acyl ghrelin (dose response) (acyl ghrelin [2]; [5]): Dose-dependent decreases; des-acyl ghrelin (dose response) (acyl ghrelin [2]; [5]): increases; reduction in acyl ghrelin levels compared to Rimonabant followed by vehicle (acyl ghrelin [1]; 10 mg/kg Example 1a for 21 days after 7 days of 3 mg/kg Rimonabant): 61%; des-acyl ghrelin levels relative to Rimonabant followed by vehicle treatment (acyl ghrelin [1]; both Example 1a treatments (10 mg/kg)): statistically significantly elevated; reduction in acyl ghrelin compared to vehicle treatment alone (acyl ghrelin [1]; [6]): 28%; reduction in acyl ghrelin levels compared to Rimonabant followed by vehicle (acyl ghrelin [1]; [6]): 57%; acyl ghrelin levels (acyl ghrelin [3]): significantly reduced; des-acyl ghrelin levels (acyl ghrelin [3]): increased; reduction in the acyl ghrelin AUC relative to vehicle treatment (acyl ghrelin [4]): 51%
15 | O=C(O)Cc1csc2c(Cl)c(O[C@@H]3CCc4nc(Cl)ccc43)cc(Cl)c12 [Example 3b] | < 50 nM | 
16 | O=C(O)Cc1csc2c(Cl)c(O[C@H]3COc4ncccc43)cc(Cl)c12 [Example 7a] | < 5000 nM | 
17 | O=C(O)Cc1csc2c(F)c(O[C@@H]3COc4nc(C(F)(F)F)ccc43)cc(Cl)c12 [Example 5b] | < 50 nM | 
18 | O=C(O)Cc1csc2cc(O[C@@H]3COc4ncccc43)cc(Cl)c12 [Example 6b] | < 50 nM | 
